EP0076973A1, “A new dioxolanic compound and its method of preparation; a new dioxolanic amine with pharmacological activity, its method of preparation, and the pharmaceutical compositions containing them” (Investigacion Tecnica y Aplicada, S.A., priority 1981, dated 1983)
Structures can show the parent of a compound that is named as a salt. Where two headings read alike, the source gives them in different places.

How the values were obtained:
[1] = tested on: male NMRI mouse; assay: Anti-arrythmic activity: fibrillation by chloroform in the mouse; assay type: in vivo; conditions: for ED50: Mus musculus
Excerpt: Tables 5 and 6 show the anti-arrithmic activity of the ITA 362 in the male NMRI mouse by oral and intraperitoneal route using the fibrillation test by chloroform in the mouse. […] The activity of the two forms of maleate described in the example 2 were studied and which in the table are subtitled as isomer A corresponding to the first fraction obtained in the aforementioned example, and isomer B corresponding to the second fraction.

[2] = tested on: hind quarters of rats; assay: Vasodilatory activity: perfusion of the hindquarters of rats with a hyperpotasemic solution; assay type: in vivo, rat; design: ED 25: unit not given here
Excerpt: In the table 3 is shown the results of the vasodilatory activity of the ITA 362 in the perfusion test of the hindquarters of rats with a hyperpotasemic solution. (F.N.Fastier, F.M. Smirk. Jl. Pharmacolog. Exp. Therapy. 89. 256, 1947).

[3] = Acute toxicity (LD50, method of Litchfield and Wilcoxon) in the mouse; conditions: in vivo
Protocol: (§1) The respective lethal dose 50 was calculated according to the method of Litchfield and Wilcoxon (Jl. Pharmacol. Exptl. 96 99, 1949 ).

[4] = Acute toxicity (LD50, method of Litchfield and Wilcoxon) in the rat; conditions: in vivo
Protocol: as §1

[5] = tested on: conscious dog; assay: Anti-angina activity: amplitude increase protection of the T wave by vasopression in the conscious dog; assay type: in vivo
Excerpt: The antiangina activity was also compared with that of the nitroglycerine by means of the amplitude increase protection test of the T wave for vasopression in the conscious dog. ( A.Lindner, M.London, G.Werner, Scheiz. Med.
Wsohr. 83-,- 360, 1953; J.Papp, L. Szekeres. Arch. Int. Pharmacodyn. 160, 1, 1966 ).

[6] = ip, no unit given for ED50 (doses in mg/kg), read-out: ED50 and confidence limits p < 0,05
[7] = po, no unit given for ED50 (doses in mg/kg), (*) = calculation of limits is not possible, read-out: ED50 and confidence limits p<0,05
[8] = ip, intraperitoneal administration, read-out: LD50 and confidence limits
[9] = oral administration, read-out: LD50

| SMILES | ED50 [1, 6] [mg/kg] | % protection versus fibrillation ([1]; i.p. 25 mg/kg) [%] | % protection versus fibrillation ([1]; i.p. 50 mg/kg, 50 mg/kg) [%] | % protection versus fibrillation ([1]; i.p. 100 mg/kg, 100 mg/kg) [%] | % protection versus fibrillation ([1]; i.p. 12,5 mg/kg) [%] | % protection versus fibrillation ([1]; p.o. 25 mg/kg, 25 mg/kg) [%] | % protection versus fibrillation ([1]; p.o. 50 mg/kg, 50 mg/kg) [%] | % protection versus fibrillation ([1]; p.o. 100 mg/kg, 100 mg/kg) [%] | % protection versus fibrillation ([1]; p.o. 12,5 mg/kg) | ED50 [1, 7] [mg/kg] | % drop in pressure ([2]; concentration 10^-5 g/ml) | % drop in pressure ([2]; concentration 10^-6 g/ml) | % drop in pressure ([2]; concentration 10^-7 g/ml) | % drop in pressure ([2]; concentration 10^-8 g/ml) | % Prot. ([5]; dose i.v. 1 mg/kg, 1 mg/kg) | also measured |
| --- | --- | --- | --- | --- | --- | --- | --- | --- | --- | --- | --- | --- | --- | --- | --- | --- |
| CCCCNCC1COC(c2ccc(Cl)cc2)(c2cc3ccccc3o2)O1 (single isomer, unassigned) [ITA 362 maleate (isomer A)] | 35.3 | 35 | 60 | 70 | 35 | 35 | 70 | 70 | 25% | – | – | – | – | – | – | – |
| CCCCNCC1COC(c2ccc(Cl)cc2)(c2cc3ccccc3o2)O1 (single isomer, unassigned) [ITA 362 maleate (isomer B)] | – | 35 | 70 | 95 | 40 | 55 | 45 | 85 | 35% | 27.6 | – | – | – | – | – | ED50 and confidence limits p < 0,05 ([1]; route i.p., no unit given for ED50 (doses in mg/kg)): 24,5 (16,11 37,20) |
| CCCCNCC1COC(c2ccc(Cl)cc2)(c2cc3ccccc3o2)O1 (stereo not shown) [ITA 362 citrate] | 41.4 | 40 | – | – | 25 | – | – | – | 31,6% | 43.2 | 33,6% | 16,3% | 12,7% | 12,5% | – | ED 25 ([2]; from concentrations 10^-5 to 10^-8 g/ml, correlation r printed in the same cell): 2,61; % protection versus fibrillation ([1]; i.p. 50 mg/kg): 35%; % protection versus fibrillation ([1]; i.p. 100 mg/kg): 84,2%; % protection versus fibrillation ([1]; p.o. 25 mg/kg): 45%; % protection versus fibrillation ([1]; p.o. 50 mg/kg): 55%; % protection versus fibrillation ([1]; p.o. 100 mg/kg): 55%; % protection versus fibrillation ([1]; p.o. 3,125 mg/kg): 10%; % protection versus fibrillation ([1]; p.o. 6,25 mg/kg): 42,1% |
| CCCCNCC1COC(c2ccc(Cl)cc2)(c2cc3ccccc3o2)O1 (stereo not shown) [ITA 362 maleate, 2-(2'-benzofuranil) -4-butylaminomethyl--2-p-chlorophenyl-1,3-dioxolane, maleate] | – | – | – | – | – | – | – | – | – | – | – | – | – | – | 46,8% | LD50 [3, 8]: 106 mg/kg; LD50 [3, 9]: > 4000 mg/kg; LD50 [4, 8]: 105 mg/kg; LD50 [4, 9]: > 4000 mg/kg; Control quot. treatment ([5]; dose i.v. 1 mg/kg): 1,893 |
| CCCCNCC1COC(c2ccc(Cl)cc2)(c2cc3ccccc3o2)O1 (stereo not shown) [ITA 362, 2-(2' -benzofuranil)-4-n-butylaminomethyl-2-p-chlorophenyl-1,3-dioxolane] | – | – | – | – | – | – | – | – | – | – | – | – | – | – | ~50% | – |
| O=[N+]([O-])OCC(CO[N+](=O)[O-])O[N+](=O)[O-] [Nitro-glycerine, nitroglycerine, reference compound] | – | – | – | – | – | – | – | – | – | – | 25,4% | 24,7% | 17,5% | 10,9% | – | % Prot. ([5]; dose i.v. 0,4 mg/kg): 28,9%; Control quot. treatment ([5]; dose i.v. 0,4 mg/kg): 1,520 |
